Laboratory results published in PubChem BioAssay AID1963838 (Molecular Pharmacology Branch, DTP, NCI, 2024).

Tested on: 855422-203-R-J1-PDC complex spheroid viability
Test: Anticancer human tumor 855422-203-R-J1-PDC patient-derived bladder carcinoma cell line growth inhibition [POLQ]
Conditions: for IC50: curve of first compound; for viability, T/C: stronger effect = lower value
Method: Multicellular complex tumor spheroid response to Polymerase (POL) inhibitors (novobiocin, ART-558, RP6685) in combination with a variety of drugs and investigational agents in selected tumor cell lines
The POL inhibitors (novobiocin, ART-558, and RP6685) were evaluated both individually and in combination with standard of care and investigational anticancer small molecules within a complex spheroid model of solid tumors. . Complex spheroids include a stromal component modeled by human endothelial cells (HUVEC) and fibroblasts modeled by human mesenchymal stem cells (MSCs). The concentration ranges selected for each drug and investigational agent were based upon clinically achievable concentrations if the clinical Cmax of the agent was known.
Compounds. The drugs and investigational agents: novobiocin (NSC847541), ART-558 (NSC835418), RP-6685 (NSC848927), peposertib (NSC802822), ceralasertib (NSC780249), elimusertib (NSC800525), camonsertib (NSC841442), AZD-1390 (NSC803789), olaparib (NSC753686), talazoparib (NSC767125), rucaparib (NSC756644), sotorasib (NSC818433), MRTX-1133 (NSC836407), SN-38 (NSC673596), topotecan (NSC609699), epotoside (NSC141540), doxorubicin (NSC123127), gemcitabine (NSC613327), 5-fluorouracil (NSC19893), paclitaxel (NSC125973), vemurafenib (NSC761431), MSA-2 (NSC828583), SN-011 (NSC837082), adavosertib (NSC754352), prexasertib (NSC758257), carboplatin (NSC241240) and oxaliplatin (NSC266046), were obtained from the National Cancer Institute (NCI) Developmental Therapeutics Program Chemical Repository (21). The FDA-approved anticancer drug set is available from the Developmental Therapeutics Program at https://dtp.cancer.gov/organization/dscb/obtaining/. […] The stock solutions were prepared in dimethyl sulfoxide (DMSO, Sigma-Aldrich, St. Louis, MO, cat. D2650), except for the platinum compounds which were prepared in saline (Quality Biological, Gaithersburg, MD, cat. 114-055-101), at 800-fold the tested concentration and stored at -70 degrees C prior to their use. All drugs and investigational agents were tested over a range starting from a high concentration at or near the clinical Cmax and decreasing in half-log increments. If the clinical Cmax for an agent had not been determined, the highest concentration tested was 10 microM, except for SN-38, which was tested at a high concentration of 1 microM.
Cell Culture. All cells were maintained in an incubator at 37 degrees C and 5% CO2 with 95% humidity. The PDC lines were cultured according to standard operating procedures established by the NCI PDMR (https://pdmr.cancer.gov). Table 3 of the manuscript, lists the cell lines along with the number of the three cell types plated to form the mct-spheroids and media for tumor cell growth. After thawing, all PDC lines, except 997537-175-T-J1-PDC and 415267-285-R-J2-PDC, were cultured in Matrigel-coated flasks prepared with a working solution of 1X Ham's F-12 nutrient mix, without supplementation (Thermo Fisher Scientific, cat. 11765054), 100 U/mL penicillin-streptomycin (Thermo Fisher Scientific, cat. 15140122), and 2.5% Matrigel (Corning Inc., Corning, NY, cat. 354248) for the first three passages. The two PDC lines 997537-175-T-J1-PDC and 415267-285-R-J2-PDC were cultured on uncoated flasks. The 857933-349-R-J2-PDC line was cultured in 6C/Colon 1B media containing advanced DMEM/F-12 (Thermo Fisher Scientific, cat. 12634028), 10 mM HEPES (Thermo Fisher Scientific, cat. 15630080), 1X GlutaMAX supplement (Thermo Fisher Scientific, cat. 35050061), 0.1 mg/mL primocin (InvivoGen, San Diego, CA, cat. ant-pm-2), 10% defined fetal bovine serum, heat inactivated (HyClone Laboratories Inc., Logan, UT, cat. SH30070.03HI), 50% L-WRN conditioned media (ATCC, cat. CRL-3276), 1.25 mM N-Acetyl-L-cysteine (Sigma-Aldrich, cat. A9165), 10 mM nicotinamide (Sigma-Aldrich, cat. N0636), 1X B-27 supplement (Thermo Fisher Scientific, cat. 17504044), 1X N-2 supplement (Thermo Fisher Scientific, cat. […]

[1] = second compound 0.0316 µM, first compound 0.0316 µM
[2] = second compound 0.0316 µM, first compound 0.1 µM
[3] = second compound 0.0316 µM, first compound 0.316 µM
[4] = second compound 0.0316 µM, first compound 1 µM
[5] = second compound 0.0316 µM, first compound 3.16 µM
[6] = second compound 0.0316 µM, first compound 10 µM
[7] = second compound 0.1 µM, first compound 0.0316 µM
[8] = second compound 0.1 µM, first compound 0.1 µM
[9] = second compound 0.1 µM, first compound 0.316 µM
[10] = second compound 0.1 µM, first compound 1 µM
[11] = second compound 0.1 µM, first compound 3.16 µM
[12] = second compound 0.1 µM, first compound 10 µM
[13] = second compound 0.316 µM, first compound 0.0316 µM
[14] = second compound 0.316 µM, first compound 0.1 µM
[15] = second compound 0.316 µM, first compound 0.316 µM
[16] = second compound 0.316 µM, first compound 1 µM
[17] = second compound 0.316 µM, first compound 3.16 µM
[18] = second compound 0.316 µM, first compound 10 µM
[19] = second compound 1 µM, first compound 0.0316 µM
[20] = second compound 1 µM, first compound 0.1 µM
[21] = second compound 1 µM, first compound 0.316 µM
[22] = second compound 1 µM, first compound 1 µM
[23] = second compound 1 µM, first compound 3.16 µM
[24] = second compound 1 µM, first compound 10 µM
[25] = second compound 3.16 µM, first compound 0.0316 µM
[26] = second compound 3.16 µM, first compound 0.1 µM
[27] = second compound 3.16 µM, first compound 0.316 µM
[28] = second compound 3.16 µM, first compound 1 µM
[29] = second compound 3.16 µM, first compound 3.16 µM
[30] = second compound 3.16 µM, first compound 10 µM
[31] = second compound 10 µM, first compound 0.0316 µM
[32] = second compound 10 µM, first compound 0.1 µM
[33] = second compound 10 µM, first compound 0.316 µM
[34] = second compound 10 µM, first compound 1 µM
[35] = second compound 10 µM, first compound 3.16 µM
[36] = second compound 10 µM, first compound 10 µM
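Note: spheroids exposed to compounds for seven days before readout.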

For `C=CC(=O)N1CCN(c2nc(=O)n(-c3c(C)ccnc3C(C)C)c3nc(-c4c(O)cccc4F)c(F)cc23)C(C)C1` (stereo unspecified) + COC1C(OC(N)=O)C(O)C(Oc2ccc3c(O)c(NC(=O)c4ccc(O)c(CC=C(C)C)c4)c(=O)oc3c2C)OC1(C)C, the IC50 (second compound 0.0316 µM) was > 10 µM, the IC50 (second compound 0.1 µM) was > 10 µM and the IC50 (second compound 0.316 µM) was > 10 µM. For the same compound, the IC50 (second compound 1 µM) was > 10 µM, the IC50 (second compound 3.16 µM) was > 10 µM and the IC50 (second compound 10 µM) was > 10 µM. The viability, T/C [1] was 110%, the viability, T/C [2] was 106% and the viability, T/C [3] was 106%. It also gave a viability, T/C [4] of 111%, a viability, T/C [5] of 123% and a viability, T/C [6] of 120%. It also gave a viability, T/C [7] of 95%, a viability, T/C [8] of 111% and a viability, T/C [9] of 108%. The viability, T/C [10] was 123%, the viability, T/C [11] was 123% and the viability, T/C [12] was 116%. It also gave a viability, T/C [13] of 111%, a viability, T/C [14] of 123% and a viability, T/C [15] of 111%. For the same compound, the viability, T/C [16] was 114%, the viability, T/C [17] was 128% and the viability, T/C [18] was 114%. For the same compound, the viability, T/C [19] was 119%, the viability, T/C [20] was 120% and the viability, T/C [21] was 114%. For the same compound, the viability, T/C [22] was 119%, the viability, T/C [23] was 121% and the viability, T/C [24] was 129%. It also gave a viability, T/C [25] of 116%, a viability, T/C [26] of 108% and a viability, T/C [27] of 108%. It also gave a viability, T/C [28] of 113%, a viability, T/C [29] of 121% and a viability, T/C [30] of 128%. For the same compound, the viability, T/C [31] was 109%, the viability, T/C [32] was 111% and the viability, T/C [33] was 106%. It also gave a viability, T/C [34] of 103%, a viability, T/C [35] of 122% and a viability, T/C [36] of 111%.
In the case of `O=C(Nc1ccc(O)c(NS(=O)(=O)c2ccc(F)cc2)c1)c1ccc(-c2ccccc2)cc1` + Cc1cccc(N(C)C(=O)C2C(O)CCN2c2nc(C)cc(C(F)(F)F)c2C#N)c1, the IC50 (second compound 0.0316 µM) is reported as > 10 µM, the IC50 (second compound 0.1 µM) is reported as > 10 µM and the IC50 (second compound 0.316 µM) is reported as > 10 µM. The IC50 (second compound 1 µM) was > 10 µM, the IC50 (second compound 3.16 µM) was > 10 µM and the IC50 (second compound 10 µM) was 7.89 µM. The viability, T/C [1] was 113%, the viability, T/C [2] was 107% and the viability, T/C [3] was 95%. The viability, T/C [4] was 85.3%, the viability, T/C [5] was 106% and the viability, T/C [6] was 66.2%. The viability, T/C [7] was 110%, the viability, T/C [8] was 122% and the viability, T/C [9] was 98.5%. The viability, T/C [10] was 92.8%, the viability, T/C [11] was 109% and the viability, T/C [12] was 58.4%. The viability, T/C [13] was 99%, the viability, T/C [14] was 104% and the viability, T/C [15] was 108%. For the same compound, the viability, T/C [16] was 111%, the viability, T/C [17] was 128% and the viability, T/C [18] was 60.8%. For the same compound, the viability, T/C [19] was 97.5%, the viability, T/C [20] was 123% and the viability, T/C [21] was 91.6%. The viability, T/C [22] was 105%, the viability, T/C [23] was 115% and the viability, T/C [24] was 59.7%. For the same compound, the viability, T/C [25] was 88.6%, the viability, T/C [26] was 124% and the viability, T/C [27] was 125%. For the same compound, the viability, T/C [28] was 105%, the viability, T/C [29] was 120% and the viability, T/C [30] was 52.7%. It also gave a viability, T/C [31] of 125%, a viability, T/C [32] of 110% and a viability, T/C [33] of 125%. The viability, T/C [34] was 106%, the viability, T/C [35] was 111% and the viability, T/C [36] was 34.1%.
In the case of `O=c1[nH]cc(F)c(=O)[nH]1` + Cc1cccc(N(C)C(=O)C2C(O)CCN2c2nc(C)cc(C(F)(F)F)c2C#N)c1, the IC50 (second compound 0.0316 µM) is reported as 0.605 µM, the IC50 (second compound 0.1 µM) is reported as 0.389 µM and the IC50 (second compound 0.316 µM) is reported as 0.387 µM. For the same compound, the IC50 (second compound 1 µM) was 0.496 µM, the IC50 (second compound 3.16 µM) was 0.537 µM and the IC50 (second compound 10 µM) was 0.554 µM. It also gave a viability, T/C [1] of 133%, a viability, T/C [2] of 96.3% and a viability, T/C [3] of 67.1%. The viability, T/C [4] was 36.8%, the viability, T/C [5] was 27.6% and the viability, T/C [6] was 25.7%. For the same compound, the viability, T/C [7] was 109%, the viability, T/C [8] was 128% and the viability, T/C [9] was 54.8%. For the same compound, the viability, T/C [10] was 33.2%, the viability, T/C [11] was 26.3% and the viability, T/C [12] was 24.2%. The viability, T/C [13] was 115%, the viability, T/C [14] was 118% and the viability, T/C [15] was 54.6%. The viability, T/C [16] was 34.5%, the viability, T/C [17] was 27.4% and the viability, T/C [18] was 23.1%. For the same compound, the viability, T/C [19] was 112%, the viability, T/C [20] was 107% and the viability, T/C [21] was 61.1%. It also gave a viability, T/C [22] of 33.7%, a viability, T/C [23] of 26.6% and a viability, T/C [24] of 24.1%. The viability, T/C [25] was 109%, the viability, T/C [26] was 99.5% and the viability, T/C [27] was 62.6%. The viability, T/C [28] was 35.2%, the viability, T/C [29] was 29.1% and the viability, T/C [30] was 27%. The viability, T/C [31] was 109%, the viability, T/C [32] was 114% and the viability, T/C [33] was 65.2%. For the same compound, the viability, T/C [34] was 40.1%, the viability, T/C [35] was 32.6% and the viability, T/C [36] was 26.6%.
